Assay results as given in US20150175599A1, “FAAH Inhibitors” (Ironwood Pharmaceuticals, Inc., priority 2010, published 2015).

Assays:
FAAH [1] = target: T1, FAAH (Homo sapiens, UniProt O00519); assay: FAAH inhibition, human brain membrane homogenate assay; format: biochemical; conditions: human brain homogenate; average activity; read-out: Human brain Extract FAAH IC50
T1 construct: Reactions were initiated by adding 12.5 μg of brain microsome; tissue ABS, Inc; host or cells: human brain cerebral cortex, membrane/microsome fraction pooled from 3 donors
T1 sequence (O00519 1-579): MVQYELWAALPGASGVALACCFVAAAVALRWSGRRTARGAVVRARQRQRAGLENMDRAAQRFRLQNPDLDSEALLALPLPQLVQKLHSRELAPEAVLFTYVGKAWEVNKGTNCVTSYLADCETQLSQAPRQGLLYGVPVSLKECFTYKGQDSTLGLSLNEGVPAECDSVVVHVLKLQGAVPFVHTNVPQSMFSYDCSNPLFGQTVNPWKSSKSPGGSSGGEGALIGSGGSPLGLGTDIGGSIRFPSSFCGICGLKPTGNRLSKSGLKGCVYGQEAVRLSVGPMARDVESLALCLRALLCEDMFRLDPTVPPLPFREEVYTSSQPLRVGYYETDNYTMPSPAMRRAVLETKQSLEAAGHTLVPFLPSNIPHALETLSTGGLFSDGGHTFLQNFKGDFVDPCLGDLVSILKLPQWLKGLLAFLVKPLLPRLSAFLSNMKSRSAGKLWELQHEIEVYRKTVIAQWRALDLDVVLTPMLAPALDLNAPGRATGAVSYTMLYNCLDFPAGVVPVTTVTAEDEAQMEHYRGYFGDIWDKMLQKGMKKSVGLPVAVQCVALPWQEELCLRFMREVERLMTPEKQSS

FAAH [2] = target: T2, FAAH (Rattus norvegicus, UniProt P97612); assay: FAAH inhibition, rat brain membrane homogenate assay; format: biochemical; conditions: rat brain homogenate; average activity; read-out: Rat Brain Extract FAAH IC50
T2 construct: For the assay of FAAH activity in rat brain membrane (RBM) homogenates; tissue Charles River (animals); host or cells: rat whole brain, membrane fraction
T2 sequence (P97612 1-579): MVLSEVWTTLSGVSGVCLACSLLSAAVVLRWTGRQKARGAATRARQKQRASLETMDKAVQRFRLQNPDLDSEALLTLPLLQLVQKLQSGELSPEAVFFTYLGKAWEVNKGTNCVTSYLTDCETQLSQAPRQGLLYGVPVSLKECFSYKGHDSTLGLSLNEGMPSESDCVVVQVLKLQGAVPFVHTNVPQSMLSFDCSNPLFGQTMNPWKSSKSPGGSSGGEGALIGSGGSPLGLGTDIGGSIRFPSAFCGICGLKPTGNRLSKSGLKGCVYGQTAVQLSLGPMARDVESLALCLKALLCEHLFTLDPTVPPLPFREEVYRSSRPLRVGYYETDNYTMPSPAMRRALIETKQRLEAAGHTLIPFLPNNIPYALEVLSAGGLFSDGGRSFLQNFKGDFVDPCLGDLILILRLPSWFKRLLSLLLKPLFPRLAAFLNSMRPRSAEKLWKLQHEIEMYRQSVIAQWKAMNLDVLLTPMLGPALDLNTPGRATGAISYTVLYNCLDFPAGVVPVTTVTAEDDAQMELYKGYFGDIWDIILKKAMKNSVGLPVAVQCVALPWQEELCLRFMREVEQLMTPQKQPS
Summary of the method: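 Membranes from female CD rat brain (Tris pH 7.4/EDTA/MgCl2 resuspension), 7 μg protein, incubated 10 min at 37 °C with [3H]anandamide plus […] unlabelled AEA, 1 mg/mL fatty acid-free BSA, Tris-HCl pH 6.5, 1 mM EDTA, 1% DMSO. [3H]ethanolamine separated by chloroform/methanol extraction or charcoal filtration, scintillation-counted; IC50 derived.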

Row | SMILES | IC50 (FAAH [1]) [nM] | IC50 (FAAH [2]) [nM]
1 | COc1cc(NC(=O)C(=O)c2c(C)n(Cc3ccc(Cl)cn3)c3cc(F)c(C)cc23)ccn1 [Compound 90, 2-(1-((5-chloropyridin-2-yl)methyl)-6-fluoro-2,5-dimethyl-1H-indol-3-yl)-N-(2-methoxypyridin-4-yl)-2-oxoacetamide] | < 100 | < 100
2 | COc1ccc2c(c1)c(C(=O)C(=O)Nc1ccnc(OC)c1)c(C)n2Cc1ncccn1 [Compound 83, 2-(5-methoxy-2-methyl-1-(pyrimidin-2-ylmethyl)-1H-indol-3-yl)-N-(2-methoxypyridin-4-yl)-2-oxoacetamide] | 1000 to 10000 | 1000 to 10000
3 | COc1ccc2c(c1)c(C(=O)C(=O)Nc1ccnc(OC)c1)c(C)n2Cc1cccnc1 [Compound 78, 2-(5-methoxy-2-methyl-1-(pyridin-3-ylmethyl)-1H-indol-3-yl)-N-(2-methoxypyridin-4-yl)-2-oxoacetamide] | 100 to 1000 | 100 to 1000
4 | COc1cc(NC(=O)C(=O)c2c(C)n(Cc3ccc(Cl)cc3)c3cccnc23)ccn1 [Compound 3, 2-(1-(4-chlorobenzyl)-2-methyl-1H-pyrrolo[3,2-b]pyridin-3-yl)-N-(2-methoxypyridin-4-yl)-2-oxoacetamide] | < 100 | < 100
5 | COc1ccc2c(c1)c(C(=O)C(=O)Nc1ccnc(OC)c1)c(C)n2Cc1ccc(C)cn1 [Compound 84, 2-(5-methoxy-2-methyl-1-((5-methylpyridin-2-yl)methyl)-1H-indol-3-yl)-N-(2-methoxypyridin-4-yl)-2-oxoacetamide] | < 100 | < 100
6 | COc1ccc2c(c1)c(C(=O)C(=O)Nc1ccnc(OC)c1)c(C)n2Cc1ncc(F)cc1F [Compound 81, 2-(1-((3,5-difluoropyridin-2-yl)methyl)-5-methoxy-2-methyl-1H-indol-3-yl)-N-(2-methoxypyridin-4-yl)-2-oxoacetamide] | < 100 | < 100
7 | COc1cc(NC(=O)C(=O)c2c(C)n(Cc3ccc(Cl)cc3)c3cc(F)c(C)cc23)ccn1 [Compound 89, 2-(1-(4-chlorobenzyl)-6-fluoro-2,5-dimethyl-1H-indol-3-yl)-N-(2-methoxypyridin-4-yl)-2-oxoacetamide] | < 100 | < 100
8 | COc1ccc2c(c1)c(C(=O)C(=O)Nc1ccnc(OC)c1)c(C)n2Cc1ncc(Cl)cc1Cl [Compound 82, 2-(1-((3,5-dichloropyridin-2-yl)methyl)-5-methoxy-2-methyl-1H-indol-3-yl)-N-(2-methoxypyridin-4-yl)-2-oxoacetamide] | < 100 | < 100
9 | COc1ccc2c(c1)c(C(=O)C(=O)Nc1ccnc(OC)c1)c(C)n2Cc1ncc(Cl)cc1F [Compound 87, 2-(1-((5-chloro-3-fluoropyridin-2-yl)methyl)-5-methoxy-2-methyl-1H-indol-3-yl)-N-(2-methoxypyridin-4-yl)-2-oxoacetamide] | < 100 | < 100
10 | COc1cc(NC(=O)C(=O)c2c(C)n(Cc3ccc(Cl)cc3Cl)c3cc(F)c(OC)cc23)ccn1 [Compound 92, 2-(1-(2,4-dichlorobenzyl)-6-fluoro-5-methoxy-2-methyl-1H-indol-3-yl)-N-(2-methoxypyridin-4-yl)-2-oxoacetamide] | < 100 | < 100
11 | COc1ccc2c(c1)c(C(=O)C(=O)Nc1ccnc(OC)c1)c(C)n2Cc1ccc(Cl)nn1 [Compound 86, 2-(1-((6-chloropyridazin-3-yl)methyl)-5-methoxy-2-methyl-1H-indol-3-yl)-N-(2-methoxypyridin-4-yl)-2-oxoacetamide] | < 100 | < 100
12 | COc1cc(NC(=O)C(=O)c2c(C)n(Cc3ccc(Cl)cc3)c3cc(OC)c(Cl)cc23)ccn1 [Compound 80, 2-(5-chloro-1-(4-chlorobenzyl)-6-methoxy-2-methyl-1H-indol-3-yl)-N-(2-methoxypyridin-4-yl)-2-oxoacetamide] | < 100 | < 100
13 | COc1ccc2c(c1)c(C(=O)C(=O)Nc1ccnc(OC)c1)c(C)n2Cc1ccc(Cl)cn1 [Compound 79, 2-(1-((5-chloropyridin-2-yl)methyl)-5-methoxy-2-methyl-1H-indol-3-yl)-N-(2-methoxypyridin-4-yl)-2-oxoacetamide] | < 100 | < 100
14 | COc1cc(NC(=O)C(=O)c2c(C)n(Cc3ccc(F)cn3)c3ccc(C)cc23)ccn1 [Compound 85, 2-(1-((5-fluoropyridin-2-yl)methyl)-2,5-dimethyl-1H-indol-3-yl)-N-(2-methoxypyridin-4-yl)-2-oxoacetamide] | < 100 | < 100
15 | COc1cc(NC(=O)C(=O)c2c(C)n(Cc3ccc(Cl)cc3)c3ccc(C(=O)O)cc23)ccn1 [Compound 4, 1-(4-chlorobenzyl)-3-(2-(2-methoxypyridin-4-ylamino)-2-oxoacetyl)-2-methyl-1H-indole-5-carboxylic acid] | 1000 to 10000 | 1000 to 10000
16 | COc1cc(NC(=O)C(=O)c2c(C)n(Cc3ccc(Cl)cc3)c3cc(Cl)c(C)cc23)ccn1 [Compound 93, 2-(6-chloro-1-(4-chlorobenzyl)-2,5-dimethyl-1H-indol-3-yl)-N-(2-methoxypyridin-4-yl)-2-oxoacetamide] | < 100 | < 100
17 | COc1cc(NC(=O)C(=O)c2c(C)n(Cc3ccc(Cl)cc3F)c3cc(F)c(OC)cc23)ccn1 [Compound 91, 2-(1-(4-chloro-2-fluorobenzyl)-6-fluoro-5-methoxy-2-methyl-1H-indol-3-yl)-N-(2-methoxypyridin-4-yl)-2-oxoacetamide] | < 100 | < 100
18 | COc1cc(NC(=O)C(=O)c2c(C)n(Cc3ccc(Cl)cn3)c3cc(Cl)c(C)cc23)ccn1 [Compound 94, 2-(6-chloro-1-((5-chloropyridin-2-yl)methyl)-2,5-dimethyl-1H-indol-3-yl)-N-(2-methoxypyridin-4-yl)-2-oxoacetamide] | < 100 | < 100
